Structures are written as SMILES.

This assay deals with Fusarium virguliforme. Nature of the assay: Growth chamber soybean sudden death syndrome seed treatment test, soil inoculated with F. virguliforme spores, visual disease severity rating. It is filed as in vivo. Particulars: for reduction in disease severity: seed treatment, versus control; for Sudden death syndrome Disease Severity (1-9): seed treatment (thiabendazole 5 g ai/100 kg seed; 2.5 g fludioxonil + 3.75 g mefenoxam/100 kg seed), averaged across five growth chamber runs, Njiti et al. scale. The source says: Soybean cultivars NK-529-J6 and NK-533-T4 where used for testing. Cultivar NK-529-J6 is labeled as partially resistant to SDS and cultivar NK-533-T4 is labeled susceptible to SDS (Syngenta Seeds, Minneapolis, Minn.). Thiabendazole fungicide seed treatment was applied to both cultivars at a rate of 5 g a.i./100 kg seed. A mefenoxam and fludioxonil combination fungicide seed treatment was also applied at a rate of 3.75 g a.i./100 kg seed and 2.5 g a.i./100kg seed, respectively. Three pathogenic isolates of F. virguliforme (Scherm et al., 1978) were used to inoculate grain sorghum (Sorghum bicolor (L.)) following the methods of Farris Neto et al. (2006). Isolates were grown on one third strength Difco Potato Dextrose Agar (PDA) growth medium. After 18 days, isolate growth on the PDA was divided into thirds and placed into a bag containing 2.27 kg of sorghum seed and allowed to incubate at room temperature for 15 days. Five experiments were conducted in a growth chamber. Each experiment was a randomized complete block design with eight replications. A 1:1 ratio of soil and sand medium was mixed together thoroughly, and steam sterilized at 121° C. for one hour. Upon sterilization of the soil medium 150 g of soil and 2.25 g of yellow cornmeal was weighed and mixed together for each conetainer. A spore suspension was prepared using 17 to 20 day old isolates of F. virguliforme grown on PDA media. Each isolate was aseptically flooded with sterilized, de-ionized water and scraped from the PDA plates causing the release of F. virguliforme spores. Each isolate was then strained through cheesecloth and mixed together to produce the spore suspension. Spore concentrations were determined using a hemacytometer, and concentrations were adjusted to produce 10 000 spores g soil^−1. After the spore concentration was determined the spore suspension was diluted to a volume of 13 ml of spore suspension per conetainer. The soil was then inoculated with the diluted spore suspension (Gongora-Canul and Leandro, 2007). Once the soil was inoculated, conetainers were filled level full with the inoculated soil, and then planted with two seeds of each variety by seed treatment combination (after emergence, thinned to one plant per conetainer) and placed in the growth chamber. Growth chambers were set at 17° C. for one week then changed to 24° C., and maintained for the remainder of the experiment. Growth chambers were set to 17° C. to help slow the germination of the soybean and therefore increase the probability for infection of F. virguliforme to take place (Gongora-Canul and Leandro, 2008). […]
Data collection for the growth chambers consisted of visual disease ratings of SDS symptom severity following the methods of Njiti et al. (1996). […] Disease incidence was recorded as a presence/absence rating.

Consider `c1ccc2[nH]c(-c3cscn3)nc2c1` [Thiabendazole, thiabendazole], for which the “reduction in disease severity” value is reported as 35% (soybean cultivar NK-533-T4) and 25% (soybean cultivar NK-S29-J6 (printed NK-29-J6)). The “Sudden death syndrome Disease Severity (1-9)” value is, setting by setting: (soybean cultivar NK-S29-J6 (partially resistant to SDS)) 0.96; (soybean cultivar NK-S33-T4 (SDS susceptible), LSD (0.05) 0.39) 1.08.

Source of the values: patent publication US20130205659A1, “METHOD OF CONTROLLING FUSARIUM VIGULIFORME AND SOYBEAN SUDDEN DEATH SYNDROME USING THIABENDAZOLE” (SYNGENTA CROP PROTECTION LLC, priority 2010, published 2013).
